Structures can show the parent of a compound that is named as a salt.
Tested on: not given
Test: not given
Conditions: not given

Row | Structure (SMILES) | melting point
1 | Nc1ccc(C#Cc2ccc(N3CCN4CCC3CC4)nn2)cc1 | 181.7 to 183.4 °C
2 | CC(=O)Nc1cccc(C(=O)Nc2ccc(N3CCN4CCC3CC4)cc2)c1 | 184 to 187 °C
3 | CC(=O)Nc1ccc(C(=O)Nc2ccc(N3CCN4CCC3CC4)cc2)cc1 | > 240 °C
4 | CC(=O)Nc1ccc(C(=O)Nc2ccc(N3CCN4CCC3CC4)nc2)cc1 | 255 °C (dec.)
5 | CC(=O)Nc1cccc(C(=O)Nc2ccc(N3CCN4CCC3CC4)nc2)c1 | 60 °C
6 | Fc1cccc(C#Cc2ccc(N3CCN4CCC3CC4)nn2)c1 (as salt: fumaric acid salt) | 173.5 to 175 °C
7 | COc1ccc(C#Cc2ccc(N3CCN4CCC3CC4)nn2)cc1 (as salt: fumaric acid salt) [Compound B4, 4-[6-(4-Methoxy-phenylethynyl)-pyridazin-3-yl]-1,4-diaza-bicyclo[3.2.2]nonane] | 208 to 209 °C
8 | C(#Cc1ccc(N2CCN3CCC2CC3)nn1)c1cccnc1 (as salt: fumaric acid salt) [Compound B5, 4-[6-(3-Pyridinlethynyl)-pyridazin-3-yl]-1,4-diaza-bicyclo[3.2.2]nonane] | 177.8 to 181.2 °C

Target: T1, α7-subtype of nicotinic receptors (Rattus norvegicus, UniProt Q05941)
T1 construct: Cerebral cortices from male Wistar rats (150-250 g) are homogenised; from tissue; host or cells: rat cerebral cortex membrane homogenate (male Wistar rats)
T1 sequence (Q05941 23-502): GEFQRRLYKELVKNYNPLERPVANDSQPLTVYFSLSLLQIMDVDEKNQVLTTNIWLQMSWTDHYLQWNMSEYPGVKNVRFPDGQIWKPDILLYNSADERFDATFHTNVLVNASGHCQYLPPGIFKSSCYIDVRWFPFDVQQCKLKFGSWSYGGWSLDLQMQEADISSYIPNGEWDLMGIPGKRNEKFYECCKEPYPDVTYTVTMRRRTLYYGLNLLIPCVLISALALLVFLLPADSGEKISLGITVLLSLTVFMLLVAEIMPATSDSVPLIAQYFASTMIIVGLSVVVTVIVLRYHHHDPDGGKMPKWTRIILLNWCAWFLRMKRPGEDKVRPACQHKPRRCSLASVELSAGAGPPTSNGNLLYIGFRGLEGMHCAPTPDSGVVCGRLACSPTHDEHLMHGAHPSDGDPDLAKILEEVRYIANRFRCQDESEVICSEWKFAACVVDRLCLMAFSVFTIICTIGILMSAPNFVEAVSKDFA
Test: In vitro inhibition of 3H-α-bungarotoxine binding in rat brain
Conditions: rat cerebral cortex homogenate; 3H-α-bungarotoxine 2 nM; 2 hours at 37° C.

Row | Structure (SMILES) | IC50 [nM]
9 | C(#Cc1ccc(N2CCN3CCC2CC3)nn1)c1ccccc1 [Compound B1, 4-(6-Phenylethynyl-pyridazin-3-yl)-1,4-diaza-bicyclo[3.2.2]nonane] | 60
10 | COc1ccc(C#Cc2ccc(N3CCN4CCC3CC4)nn2)cc1 [Compound B4, 4-[6-(4-Methoxy-phenylethynyl)-pyridazin-3-yl]-1,4-diaza-bicyclo[3.2.2]nonane] | 180
11 | C(#Cc1ccc(N2CCN3CCC2CC3)nn1)c1cccnc1 [Compound B5, 4-[6-(3-Pyridinlethynyl)-pyridazin-3-yl]-1,4-diaza-bicyclo[3.2.2]nonane] | 150
12 | c1ccc(Sc2ccc(N3CCN4CCC3CC4)nn2)cc1 [Compound C1, 4-(6-Phenylsulfanyl-pyridazin-3-yl)-1,4-diaza-bicyclo[3.2.2]nonane] | 600

From US8236793B2, “Diazabicyclic aryl derivatives as cholinergic receptor modulators” (Neurosearch A/S, priority 2004, dated 2012)
